8 molecules from article PMC11900971 (International Journal of Molecular Sciences, 2025) can be followed below.

Read-outs that look alike come from different tables or passages of the source.

For experiment [1], the system named is Plasmodium falciparum, strain NF54, erythrocytic stages.
The subject of experiment [2] is L6 cells (rat skeletal myoblasts). Kind of experiment: cells. Conditions: L6, read-out: Cyt L6 IC50.
The subject of experiment [3] is Plasmodium falciparum, strain NF54, erythrocytic stages. Kind of experiment: microbe, parasite or virus in culture.
In experiment [4] the test system is Trypanosoma brucei rhodesiense, STIB 900 strain, bloodstream forms. Kind of experiment: microbe, parasite or virus in culture.
The test system is the same in experiment [5].
The subject of experiment [6] is L6 cells (rat skeletal myoblasts). To be noted: read-out: Cyt L6 IC50.
The mark [7] stands for this setting: NF54, read-out: P. falc. pIC50 (converted).
Where [8] appears, read: read-out: T. b. rhod. pIC50 (converted).

For `CC1=C(Cc2cccc(NC(=O)CCC(F)(F)F)c2)C(=O)c2ccccc2C1=O` [Compound 2o, 2-Methyl-3-{[3-(4,4,4-trifluorobutanamido)phenyl]methyl}-1,4-naphthoquinone], the “P. falc. pIC50” value in experiment [1] is 6.17. Besides, the IC50 in experiment [2] was 87500 nM; in experiment [3] (NF54, read-out: P. falc. IC50), 670 nM; in experiment [3] (setting [7]) it was 631 nM; in experiment [4] (read-out: T. b. rhod. IC50), 50800 nM; in experiment [4] (setting [8]), 51300 nM.
Consider “2-Methyl-2-{[4-(4,4,4-trifluorobutanamido)phenyl]methyl}-1,4-naphthoquinone [Compound 2n]”, for which the “P. falc. pIC50” value in experiment [1] (pIC50 = -log10 IC50 (M), P. falciparum NF54) was found to be 6.80. Besides, in experiment [1] (ratio IC50 in L6 cells/IC50 in P. falciparum NF54), the “SI (P. falc.)” value is recorded as 92. Moreover, the IC50 is 159 nM in experiment [1] (read-out: P. falc. IC50, P. falciparum strain NF54, erythrocytic stages); 72200 nM in experiment [5] (read-out: T. b. rhod. IC50); 14700 nM in experiment [6]. In addition, the “T. b. rhod. pIC50” value in experiment [5] is given as 4.14. Further, the “SI (T. b. rhod.)” value in experiment [5] (ratio IC50 in L6 cells/IC50 in T. b. rhodesiense STIB900) came to 0.
As to `O=C1C=C(Cc2ccc(F)cc2C(F)(F)F)C(=O)c2ccccc21` [Compound 4d, 2-{[4-Fluoro-2-(trifluoromethyl)phenyl]methyl}-1,4-naphthoquinone], the IC50 is 38400 nM in experiment [2]; 2310 nM in experiment [3] (NF54, read-out: P. falc. IC50); 2290 nM in experiment [3] (setting [7]); 1740 nM in experiment [4] (read-out: T. b. rhod. IC50); 1740 nM in experiment [4] (setting [8]).
Consider `O=C1C=C(Cc2ccccc2)C(=O)c2ccccc21` [Compound 4a, 2-Benzyl-1,4-naphthoquinone], for which the IC50 in experiment [2] was 61600 nM; in experiment [3] (NF54, read-out: P. falc. IC50), 2760 nM; in experiment [3] (setting [7]), 2750 nM; in experiment [4] (read-out: T. b. rhod. IC50) it was 318 nM; in experiment [4] (setting [8]), 316 nM.
Consider `CC1=C(Cc2ccc(C(F)(F)F)cc2F)C(=O)c2ccccc2C1=O` [Compound 2c, 2-{[2-Fluoro-4-(trifluoromethyl)phenyl]methyl}-3-methyl-1,4-naphthoquinone], for which the IC50 in experiment [2] was 61700 nM; in experiment [3] (NF54, read-out: P. falc. IC50), 11 nM; in experiment [3] (setting [7]), 11.5 nM; in experiment [4] (read-out: T. b. rhod. IC50) it was 81400 nM; in experiment [4] (setting [8]), 81300 nM.
Consider `O=C1C=C(Cc2ccc(Cl)nc2)C(=O)c2ccccc21` [Compound 4e, 2-[(6-Chloropyridin-3-yl)methyl]-1,4-naphthoquinone], for which the IC50 in experiment [2] was 3940 nM; in experiment [3] (NF54, read-out: P. falc. IC50), 2010 nM; in experiment [3] (setting [7]) it was 2000 nM; in experiment [4] (read-out: T. b. rhod. IC50), 522 nM; in experiment [4] (setting [8]), 525 nM.
Consider `CC1=C(Cc2ccc(NC(=O)C(F)(F)F)cc2)C(=O)c2ccccc2C1=O` [Compound 2l, 2-Methyl-3-{[4-(2,2,2-trifluoroacetamido)phenyl]methyl}-1,4-naphthoquinone], for which the IC50 was 16100 nM in experiment [2]; 147 nM in experiment [3] (NF54, read-out: P. falc. IC50); 148 nM in experiment [3] (setting [7]); 23400 nM in experiment [4] (read-out: T. b. rhod. IC50); 23400 nM in experiment [4] (setting [8]).
In the case of `CC(=O)Nc1ccc(CC2=C(C)C(=O)c3ccccc3C2=O)cc1` [Compound 2j, 2-[(4-Acetamidophenyl)methyl]-3-methyl-1,4-naphthoquinone], the IC50 is 16300 nM in experiment [2]; 695 nM in experiment [3] (NF54, read-out: P. falc. IC50); 692 nM in experiment [3] (setting [7]); 28900 nM in experiment [4] (read-out: T. b. rhod. IC50); 28800 nM in experiment [4] (setting [8]).
